This note sets out measurements from patent US9258995B2, “Organ cold storage composition and methods of use” (BOARD OF TRUSTEES OF THE UNIVERSITY OF ARKANSAS, priority 2009, dated 2016).

The structures appear in SMILES notation. Entries after “also recorded” stand apart in the source; their conditions may differ.

In test [1] the test system is rat kidneys. The experiment in a line: Rodent model of warm ischemia/reperfusion (I/R). It counts as in vivo. The settings on record: rat kidneys following warm I/R; MitoQ 48 hr oral; 100 μM. The text has this:
Rodent models of warm ischemia/reperfusion (I/R) (FIGS. 6-7) and cold renal preservation, as well as renal cell models of cold storage (FIG. 3-5) were used to evaluate the effectiveness of MitoQ in preventing renal damage during ischemia. […] In addition, Mito Q blunted mitochondrial superoxide production (Mitosox Red staining) and respiratory complex dysfunction following cold preservation (FIGS. 4-5).

Test [2] concerns NRK cells. The test is described as follows: Nitrotyrosine immunocytochemistry during CS. It counts as cell-based, rat. Particulars: 4 h CS, 1 μM. Here is the method:
Normal rat kidney proximal tubular cells (NRK-52E; American Type Culture Collection, Manassas, Va.) were maintained in six-well 100 or 150-mm, or 150-mm plates in a humidified incubator gassed with 5% CO2 and 95% air at 37° C. in DMEM (Invitrogen, Carlsbad, Calif.) containing 5% fetal calf serum (FCS). Cells were grown to 60% confluence and divided into four treatment groups: 1) untreated (Untx), 2) CS, 3) CS+MitoQ, and 4) CS+DecylTPP. Untreated cells remained at 37° C. in DMEM containing 5% FCS (group 1). CS was initiated by washing cells with cold PBS (Invitrogen) twice and storing them in UW/Viaspan solution alone (4 h at 4° C.) (group 2), CS+MitoQ (1 μM) (group 3), or CS+DecylTPP (1 μM) (group 4). In separate experiments, cells were exposed to CS plus RW by replacing UW solution alone or UW solution containing MitoQ or DecylTPP with DMEM containing 5% FCS overnight (18 h at 37° C.).
NRK cells (groups 1-4) were assessed for nitrotyrosine formation as previously described. […] Nitrotyrosine staining was evaluated and captured with equal exposure times using a Nikon Eclipse 800 microscope (40×oil). Images were quantified by averaging the mean intensity fluorescence of five random cells in three different fields using Nikon N is Elements software. Renal tissue sections were assessed for the presence of nitrotyrosine protein adducts by nitrotyrosine immunohistochemistry. […]

Test [3] has as its system NRK cells. The test is described as follows: Available nitric-oxide levels, CS NRK cell model. The format is cell-based, rat. Particulars: 4-h CS (data not shown). From the text: Nitric oxide is a free radical that is well known to interact with superoxide to form peroxynitrite. It is generated by nitric-oxide synthase (NOS) and is an important signaling molecule in many physiological processes. Few reports have evaluated the effect of cold ischemia alone on NOS protein levels or activity.

The next test concerns porcine kidneys. The test is described as follows: Nitrotyrosine staining of porcine kidneys during cold preservation. On the set-up: dose or concentration left out as unconfirmed. As for the experimental part: FIG. 14 depicts micrographs and plots showing increased nitrotyrosine protein expression detected during cold preservation. (A) Representative images showing MitoQ (100 mM) mediated reduction of nitrotyrosine staining. (B) Expression level of total (combined cortex and medulla) nitrotyrosine was evaluated and scored. (C) Expression level of cortical and medulla nitrotyrosine was evaluated and scored. Error bar indicates Mean SEM (n=4). *P<0.05 compared to untreated kidneys at 24 and 48 hr within the cortex.
Nitrotyrosine staining and nitrotyrosine expression levels were used to determine protective effect of MitoQ on porcine kidneys during SC.

Test [4] has as its system rat kidneys. The experiment in a line: TUNEL staining of renal cell death during CS. The settings on record: 4 h CS, 100 μM. As for the experimental part: All animals were treated according to the National Institutes of Health Guide for the Care and Use of Laboratory Animals and the University of Arkansas for Medical Sciences Institutional Animal Care and Use Committee guidelines. Male Fischer 344 inbred rats (Charles Rivers Laboratories, Inc., Wilmington, Mass.) weighing between 250 and 300 g were anesthetized with ethrane, followed by shaving and prepping with betadine. […] Bulldog clamps were placed on the aorta and vena cava (proximal and distal to the renal vessels) to prevent blood flow to the kidneys. A 22-gauge surgical needle was used to puncture the rat's aorta to flush the renal grafts with saline (10 ml per kidney) using a small catheter. Once the kidneys started to turn light brown (perfusion), another vent was formed in the vena cava to allow blood flow from the kidneys. […]
Cell cytotoxicity was determined using the LDH-Cytotoxicity Assay Kit II (Biovision Research Products, Mountain View, Calif.) according to the manufacturer's instructions. Absorbance was measured at 450 nm using a SpectraMax 190 microplate reader and SpectraMax software (Molecular Devices, Sunnyvale, Calif.). Renal cell death was determined using TUNEL staining. […] The amount of cell death was calculated by averaging the number of cells positive for TUNEL (brown staining) in 10 different fields (cortex and medulla) (20×). […]

The mark [5] stands for this setting: porcine kidneys during cold preservation.

For the compound `COC1=C(OC)C(=O)C(CCCCCCCCCC[P+](c2ccccc2)(c2ccccc2)c2ccccc2)=C(C)C1=O` [MitoQ, mitoquinone], the MnSOD activity entry in the test with rat kidneys [1] is given as “improved”. Further, the “attenuation of nitrotyrosine formation” value in the test with NRK cells [2] is reported as around 2 fold. Besides, the available nitric-oxide levels entry in the test with NRK cells [3] is on record as “no effect”. In the test with porcine kidneys (setting [5]), the “nitrotyrosine expression levels, combined cortex and medulla” value is “reduced”; the nitrotyrosine staining entry is on record as “significantly decreased; also recorded: reduction”. Also, the “nitrotyrosine expression levels in the cortex” value in the test with porcine kidneys (porcine kidneys, 24 and 48 hr) is given as “significantly lower”. The “decrease of cell death (TUNEL) compared with CS kidneys” value in the test with rat kidneys [4] is around 2 fold.
